We go through three compounds from BindingDB's records for doi:10.1021/jm970857f (Eli Lilly, 1998).

The target of the assay is T1, Alpha-1A adrenergic receptor (Rattus norvegicus, UniProt P43140).
T1 sequence (P43140 whole entry): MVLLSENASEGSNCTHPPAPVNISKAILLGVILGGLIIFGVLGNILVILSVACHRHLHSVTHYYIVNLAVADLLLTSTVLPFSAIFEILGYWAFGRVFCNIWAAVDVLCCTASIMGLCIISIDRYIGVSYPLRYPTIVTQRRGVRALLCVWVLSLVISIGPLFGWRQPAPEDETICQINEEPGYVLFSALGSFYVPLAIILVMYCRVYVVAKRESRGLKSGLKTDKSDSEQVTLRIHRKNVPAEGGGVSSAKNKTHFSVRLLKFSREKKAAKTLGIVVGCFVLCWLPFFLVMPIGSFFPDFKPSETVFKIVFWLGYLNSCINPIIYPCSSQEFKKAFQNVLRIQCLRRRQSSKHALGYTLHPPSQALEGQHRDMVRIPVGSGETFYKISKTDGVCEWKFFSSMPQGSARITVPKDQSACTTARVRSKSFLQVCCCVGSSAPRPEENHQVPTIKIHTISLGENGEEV

pKi: −log10 of the molar value. Counter-ions that a name gives are not always drawn.

The term pKi denotes the negative decadic logarithm of the Ki, by convention in mol/L. Low values mean a high Ki, high ones a low Ki. For the compound `CC(C)n1nc(C(=O)NC2CCN(CCNS(C)(=O)=O)CC2)c2ccccc21` [N-(1-(2-((N-Methylsulfonyl)amino)ethyl)piperidin-4-yl)-1-isopropylindazole-3-carboxamide Maleate], the pKi is < 5.00.

Take `CC(C)n1nc(C(=O)NCCN2CCC(NC(=O)OCc3ccccc3)CC2)c2ccccc21` [N-(2-(4-((Benzyloxycarbonyl)amino)-1-piperidinyl)-ethyl)-1-isopropylindazole-3-carboxamide Oxalate]: the pKi was < 5.00.

In the case of `CC(C)n1nc(C(=O)NC2CCN(Cc3ccccc3)CC2)c2ccccc21` [N-(1-Benzylpiperidin-4-yl)-1-isopropylindazole-3-carboxamide Hydrochloride], the pKi was < 5.00.
